Like-named read-outs stand apart in the source and are kept apart here.
Tests used:
[1] = test system: micturition reflex (rhythmic bladder contractions); test: Inhibition of micturition reflex (rhythmic bladder contractions) in unanesthetized, gallamine-immobilized rats; assay type: in vivo, Male Wister rats; conditions: for Disappearance time (of bladder contractions): i.v., 4 rats, mean ± S.E., saline 9.0 ± 1.8; for Inhibition Rate: i.d., 15 min after administration, 0.5% CMC 11.9 ± 7.9
Method: (§1) statistical analysis: Each data of Experiment 1-6 represents the mean±S.E. statistical analysis of the data was performed using student's t-test.
Male Wister rats weighing about 300 g (in case of intraduodenal administration, fasted more than 15 hours) were anesthetized with ether and immobilized with gallamine (5 mg/kg, i.v.) and fixed on their back. As soon as that procedure was finished anesthesia was discontinuted.
In the experiment, infusion of gallamine, 13 mg/kg/hr, i.v. (in case of intraduodenum administration, 10 mg/kg/hr, i.v.) was continuted, and artificial respiration was performed (90 times/min, 3 ml air/time).
Then, through a midline incision of the abdomen, the urinary bladder was exposed; a small incision provided therein, and a balloon (capacity about 1 ml) was inserted into the bladder dome.
The balloon was connected to a pressure transducer and variations of inside pressure were recorded on a recorder.
Micturition reflex was elicited by raising the balloon pressure 10-20 cm H2 O.
In case of intravenous administration, the drug was administrated through a cannula inserted into the left jugular vein, and in case of intraduodenal administration the drug was administrated through a cannula inserted into the duodenum from outside the stomach.
In case of intravenous administration, the effect of the drug was represented by the disappearance time of bladder contractions caused by micturition reflex.
In case of intraduodenal administration, the sum total of amplitude of bladder contractions caused by micturition reflex was calculated during each five minutes at 5 min before and 15, 30, 45, 60, 75, 90, 105 and 120 min after the administration.
Then, inhibition rate was calculated by the sum total of amplitude of bladder contractions at each point compared with that before the administration.

[2] = test system: cystometrogram (time to micturition); test: Effects on the cystometrogram (Dog); assay type: in vivo, Mongrel adult dogs; conditions: i.v., dogs, mean ± S.E., saline 6.0 ± 13.8
Method: as §1
Mongrel adult dogs weighing about 10 kg were anesthetized with thiopental (20 mg/kg, i.v.) and immobilized with gallamine (2 mg/kg, i.v.), and fixed on their back.
In the experiment, infusion of pentobarbital (3 mg/kg/hr, i.v.) and gallamine (3 mg/kg i.v.) were continuted, and artifical respiration was performed (20 times/min, 20 ml air/kg).
After midline incision of the abdomen, the ureters were ligated and polyethylene tubes were inserted into the kidney side and the urinary bladder side. Urine was led out of the body from the kidney side, and warm saline was infused using a continuous infusion pump from the urinary bladder side.
Then, a catheter was inserted into the bladder dome and connected to a pressure transducer. Intravesical pressure was recorded on a recorder.
The infusion rate of saline was changed (6-35 ml/min) so as to induce the time to micturition from the saline infusion (time to micturition) at about five minutes.
The drug was administered (through a cannula inserted into the right femoral vein) at the second minute before the last time to micturition, and the delayed time of micturition was evaluated.

[3] = test system: cystometrogram (time to micturition); test: Effects on the cystometrogram (Cat); assay type: in vivo, Mongrel adult cats; conditions: cats; for ED (2 min delay of micturition): Felis catus, read-out: ED2 (dose which delayed time to micturition by 2 min.)
Method: as §1
Mongrel adult cats weighing about 3 kg (in case of intraduodenal administration, fasted 24 hours) were anesthetized with urethane (500 mg/kg, i.p.) and alpha-chloralose (50 mg/kg, i.p.) and fixed on their back.
After midline incision of the abdomen, the ureters were ligated and polyethylene tubes were inserted into the kidney side and urinary bladder side, urine was led out of the body from the kidney side, and warm saline was infused using a continuous infusion pump from the urinary bladder side.
Then, a catheter was inserted into the bladder dome and connected to a pressure transducer Intravesical pressure was recorded on a recorder.
The infusion rate of saline was changed (0.7-6.6 ml/min) so as to induce the time to micturition from saline infusion at about five minutes.
Each of delayed time of micturition was evaluated. In case of intravenous administration, the drug was administered through a cannula inserted into the right femoral vein at 30 seconds before saline infusion.
In case of intraduodenal administration, the drug was administrated through a tube inserted into the duodenum by way of mouth at the time of saline infusion, and the time to micturition was measured at 15 min. intervals until 90 min.

[4] = test system: cystometrogram (time to micturition); test: Effects on the cystometrogram (in anesthetized rat); assay type: in vivo, Male Wister rats; conditions: i.v., 6 rats, mean ± S.E., saline -6.0 ± 49.8
Method: as §1
Male Wister rats weighing about 300 g were anesthetized with urethane (500 mg/kg, i.p.) and α-chloralose (50 mg/kg, i.p.) and fixed on their back.
Then, through a midline incision of the abdomen, the urinary bladder was exposed, provided with a small incision, a polyethylene tube was inserted into the bladder dome, and ureters were cut.
Then, through the polyethylene tube, saline was infused using a continuous infusion pump. On the other hand, the polyethylene tube was connected to a pressure transducer. Intravesical pressure was recorded on a recorder.
The drug was administrated through a cannula inserted into the left jugular vein at 30 sec before saline infusion. Effect of the drug was represented by delayed time to micturition.

[5] = test system: cystometrogram (time to micturition); test: Effect on the cystometrogram (pollakiuria model rats induced by hypogastric nerve transection); assay type: in vivo, Male Wister rats; conditions: i.v., mean ± S.E., saline -6.0 ± 31.8
Method: as §1
Male Wister rats weighing 300 g were incised midline of the abdomen, and bilateral hypogastric nerves were transected.
Two days after hypogastric nerve transection, the rats were anesthetized with urethane (500 mg/kg, i.p.) and alpha-chloralose (50 mg/kg, i.p.) and fixed on their back.
Then, through a midline incision of the abdomen, the urinary bladder was exposed, provided with a small incision, a polyethylene tube inserted, and ureters were cut.
Through the polyethylene tube, saline was infused using a continuous infusion pump. On the other hand, the polyethylene tube was connected to a pressure transducer. Intravesical pressure was recorded on a recorder.
The drug was administrated through a cannula inserted into the left jugular vein at 30 sec before saline infusion.
Effect of drug was represented as delayed time to micturition.

Question: With `CCc1ccc(C(=O)C(C)CN2CCCC2)cc1` (stereo not drawn) [Compound 1] as the compound, how does the “Disappearance time (of bladder contractions)” value ([1]; 4 mg/kg) read?
Answer: 52.8 ± 23.4 min

Question: What about the “Disappearance time (of bladder contractions)” value ([1]; 8 mg/kg, * p < 0.05 vs control) of the same compound?
Answer: 249.0 ± 45.0 min

Question: What about the “Inhibition Rate” value ([1]; 12.5 mg/kg, * p < 0.05) of the same compound?
Answer: 36.1 ± 4.4%

Question: What about the “Inhibition Rate” value ([1]; 25 mg/kg, ** p < 0.01) of the same compound?
Answer: 53.8 ± 6.9%

Question: And the “Inhibition Rate” value ([1]; 50 mg/kg, ** p < 0.01)?
Answer: 87.9 ± 5.1%

Question: What about the “Delayed time of micturition” value ([2]; 1 mg/kg) of the same compound?
Answer: 13.2 ± 21.0 s

Question: What about the “Delayed time of micturition” value ([2]; 3 mg/kg, * p < 0.05 vs last time to micturition) of the same compound?
Answer: 50.4 ± 15.0 s

Question: What about the “Delayed time to micturition” value ([3]; 1 mg/kg, i.v., mean ± S.E., saline 6.6 ± 10.2) of the same compound?
Answer: -19.2 ± 6.6 s

Question: And the “Delayed time to micturition” value ([3]; 4 mg/kg, i.v., mean ± S.E., saline 6.6 ± 10.2)?
Answer: 70.8 ± 27.0 s

Question: And the “Delayed time to micturition” value ([3]; 8 mg/kg, i.v., mean ± S.E., saline 6.6 ± 10.2)?
Answer: 170.4 ± 48.0 s

Question: And the “Delayed time to micturition” value ([3]; 12.5 mg/kg, i.d., after 30 min., water 22.2 ± 16.2)?
Answer: 49.8 ± 8.4 s

Question: What about the “Delayed time to micturition” value ([3]; 25.0 mg/kg, i.d., after 30 min., ** p < 0.01 vs control, water 22.2 ± 16.2) of the same compound?
Answer: 105.0 ± 10.8 s

Question: And the “Delayed time to micturition” value ([3]; 50.0 mg/kg, i.d., after 30 min., water 22.2 ± 16.2)?
Answer: 128.4 ± 37.8 s

Question: What about the ED (2 min delay of micturition) ([3]; intraduodenal, 0.5 h, i.d., after 30 min.) of the same compound?
Answer: 39 mg/kg

Question: What about the ED (2 min delay of micturition) ([3]; iv, 2 min, i.v.) of the same compound?
Answer: 5.6 mg/kg

Question: What about the “Delayed time of micturition” value ([4]; 1 mg/kg) of the same compound?
Answer: 52.8 ± 50.4 s

Question: And the “Delayed time of micturition” value ([4]; 4 mg/kg)?
Answer: 102.0 ± 32.4 s

Question: What about the “Delayed time of micturition” value ([4]; 8 mg/kg, ** P < 0.01 vs control) of the same compound?
Answer: 200.4 ± 60.6 s

Question: What about the “Delayed time of micturition” value ([5]; 1 mg/kg, 5 rats) of the same compound?
Answer: 91.8 ± 47.4 s

Question: What about the “Delayed time of micturition” value ([5]; 4 mg/kg, 5 rats) of the same compound?
Answer: 179.4 ± 111.0 s

Question: What about the “Delayed time of micturition” value ([5]; 8 mg/kg, 6 rats, ** P < 0.01 vs control) of the same compound?
Answer: 449.4 ± 65.4 s
